According to patent publication US10005767B2, “Compositions and methods for inhibition of the JAK pathway” (Rigel Pharmaceuticals, Inc., priority 2009, dated 2018):
pIC50: −log10 of the molar value. Structures can show the parent of a compound that is named as a salt.

What follows are molecules tested on human primary T-cells, IL-2 stimulated proliferation (JAK-1 and JAK-3 dependent; reported as JAK3 activity) (assay: Human primary T-cell proliferation stimulated by IL-2 (Example 3)). Conditions: Homo sapiens, T-cell, tested under conditions described in Example 3 (IL-2 stimulated human primary T-cell proliferation); read-out: ability to inhibit JAK3 activity, IC50 range (Table V).
Assay type: cell-based
Procedure, shortened: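 Peripheral-blood human T-cells pre-activated via TCR/CD28, IL-2-starved overnight, then cultured 72 h at 37 °C with compound in Yssel's medium containing IL-2 (80 U/mL in cell suspension). Proliferation read as viable-cell ATP by CellTiter-Glo luminescence; reduction versus control taken as JAK pathway inhibition.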

Row | Structure (SMILES) | pIC50
1 | Cc1cnc(Nc2cc(C(C)NC3CC3)cc(C(F)(F)F)c2)nc1Nc1ccc2oc(=O)[nH]c2c1 (centres unmarked) [Compound I-461, 5-(2-(3-(1-(cyclopropylamino)ethyl)-5-(trifluoromethyl)phenylamino)-5-methylpyrimidin-4-ylamino)benzo[d]oxazol-2(3H)-one] | > 6.30
2 | Cc1cnc(Nc2ccc(N3C[C@@H](C)NC[C@@H]3C)nc2)nc1Nc1ccc2oc(=O)[nH]c2c1 (relative stereo) [II-130, N2-[2-(trans-2,5-dimethylpiperazino)pyridin-5-yl]-5-methyl-N4-(2-oxo-2,3-dihydro-1,3-benzoxazol-5-yl)-2,4-pyrimidinediamine] | > 6.30
3 | Cc1cnc(Nc2ccc(Cl)cc2)nc1Nc1ccc2oc(=O)[nH]c2c1 [Compound I-172, 5-[2-(4-Chloro-phenylamino)-5-methyl-pyrimidin-4-ylamino]-3H-benzooxazol-2-one] | > 6.30
4 | COc1cc(Nc2ncc(C)c(Nc3ccc4oc(=O)[nH]c4c3)n2)ccc1C(=O)N(C)C [Compound I-267, 2-methoxy-N,N-dimethyl-4-(5-methyl-4-(2-oxo-2,3-dihydrobenzo[d]oxazol-5-ylamino)pyrimidin-2-ylamino)benzamide] | > 6.30
5 | Cc1cnc(Nc2ccc(C(=O)Nc3ccccc3)c(C(F)(F)F)c2)nc1Nc1ccc2oc(=O)[nH]c2c1 [Compound I-219, 4-(5-methyl-4-(2-oxo-2,3-dihydrobenzo[d]oxazol-5-ylamino)pyrimidin-2-ylamino)-N-phenyl-2-(trifluoromethyl)benzamide] | > 6.30
6 | COc1cc(Nc2ncc(C)c(Nc3ccc4oc(=O)[nH]c4c3)n2)cnc1OC [II-140, N2-(2,3-dimethoxypyridin-5-yl)-5-methyl-N4-(2-oxo-2,3-dihydro-1,3-benzoxazol-5-yl)-2,4-pyrimidinediamine] | > 6.30
7 | CN1CCN(c2ccc(Nc3ncc(C(F)(F)F)c(Nc4ccc5oc(=O)[nH]c5c4)n3)cn2)CC1 [II-85, 5-(2-(6-(4-methylpiperazin-1-yl)pyridin-3-ylamino)-5-(trifluoromethyl)pyrimidin-4-ylamino)benzo[d]oxazol-2(3H)-one] | > 6.30
8 | Cc1cc(C)cc(Nc2ncc(C)c(Nc3cc(C)c4oc(=O)[nH]c4c3)n2)c1 [Compound I-474, 5-(2-(3,5-dimethylphenylamino)-5-methylpyrimidin-4-ylamino)-7-methylbenzo[d]oxazol-2(3H)-one] | > 6.30
9 | C=C1C[C@@H](O)CN1c1ccc(Nc2ncc(C)c(Nc3ccc4oc(=O)[nH]c4c3)n2)cn1 [II-126, N2-[2-(4R-hydroxy-2-methylidene-pyrrolidin-1-yl)pyridin-5-yl]-5-methyl-N4-(2-oxo-2,3-dihydro-1,3-benzoxazol-5-yl)-2,4-pyrimidinediamine] | 5.30 to 6.30
10 | COc1cc(Nc2ncc(C)c(Nc3ccc4oc(=O)[nH]c4c3)n2)cc(C(C)N2CCC2)c1 (centres unmarked) [Compound I-235, 5-(2-(3-(1-(azetidin-1-yl)ethyl)-5-methoxyphenylamino)-5-methylpyrimidin-4-ylamino)benzo[d]oxazol-2(3H)-one] | > 6.30
11 | Cc1cnc(Nc2ccc(C(F)(F)F)c(Cl)c2)nc1Nc1ccc2oc(=O)[nH]c2c1 [Compound I-167, 5-[2-(3-Chloro-4-trifluoromethyl-phenylamino)-5-methyl-pyrimidin-4-ylamino]-3H-benzooxazol-2-one] | > 6.30
12 | CCN(CC)C1CCN(C(=O)c2ccc(Nc3ncc(C)c(Nc4ccc5oc(=O)[nH]c5c4)n3)cc2)C1 (centres unmarked) [Compound I-128, 5-{2-[4-(3-Diethylamino-pyrrolidine-1-carbonyl)-phenylamino]-5-methyl-pyrimidin-4-ylamino}-3H-benzooxazol-2-one] | > 6.30
13 | Cc1cnc(Nc2cc(F)cc(N3CCOCC3)c2)nc1Nc1ccc2oc(=O)[nH]c2c1 [Compound I-240, 5-(2-(3-fluoro-5-morpholinophenylamino)-5-methylpyrimidin-4-ylamino)benzo[d]oxazol-2(3H)-one] | > 6.30
14 | Cc1cnc(Nc2cccc(OC(F)(F)F)c2)nc1Nc1ccc2oc(=O)[nH]c2c1 [Compound I-106, N4-(benzoxazolin-2-on-5-yl)-N2-(3-trifluoromethoxyphenyl)-5-methylpyrimidine-2,4-diamine trifluoroacetate salt] | > 6.30
15 | CCN1CCN(c2ccc(Nc3ncc(C)c(Nc4ccc5oc(=O)[nH]c5c4)n3)cc2C(F)(F)F)CC1 [Compound I-110, N4-(benzoxazolin-2-on-5-yl)-N2-[3-trifluoromethyl-4-(4-ethylpiperazin-1-yl)phenyl]-5-methylpyrimidine-2,4-diamine] | > 6.30
16 | Cc1cc(Nc2ncc(F)c(Nc3ccc4oc(=O)[nH]c4c3)n2)cnc1N1CCN(C)CC1 [II-30, N4-(benzoxazolin-2-on-5-yl)-N2-[3-methyl-2-(4-methylpiperazin-1-yl)pyridin-5-yl]-5-fluoropyrimidine-2,4-diamine] | > 6.30
17 | Cc1cnc(Nc2cccc(S(C)(=O)=O)c2)nc1Nc1cc(C)c2oc(=O)[nH]c2c1 [Compound I-244, 7-methyl-5-(5-methyl-2-(3-(methylsulfonyl)phenylamino)pyrimidin-4-ylamino)benzo[d]oxazol-2(3H)-one] | > 6.30
18 | COc1cc(C)cc(Nc2ncc(C)c(Nc3cc(C)c4oc(=O)n(COP(=O)(O)O)c4c3)n2)c1 [Compound I-536, Sodium (5-(2-(3-methoxy-5-methylphenylamino)-5-methylpyrimidin-4-ylamino)-7-methyl-2-oxobenzo[d]oxazol-3 (2H)-yl)methyl phosphate] | 5.00 to 5.30
19 | Cc1cnc(Nc2ccc(-c3cccnc3)c(F)c2)nc1Nc1ccc2oc(=O)[nH]c2c1 [Compound I-505, 5-(2-(3-fluoro-4-(pyridin-3-yl)phenylamino)-5-methylpyrimidin-4-ylamino)benzo[d]oxazol-2(3H)-one trifluoroacetic acid salt] | < 5.00
20 | Cc1cnc(Nc2ccc3c(c2)[nH]c(=O)n3C)nc1Nc1ccc2oc(=O)[nH]c2c1 [IV-28, 5-(5-methyl-2-(1-methyl-2-oxo-2,3-dihydro-1H-benzo[d]imidazol-5-ylamino)pyrimidin-4-ylamino)benzo[d]oxazol-2(3H)-one] | > 6.30

Same assay, conditions: tested under conditions described in Example 3 (IL-2 stimulated human primary T-cell proliferation); read-out: ability to inhibit JAK3 activity, IC50 range (Table V)

Row | Structure (SMILES) | pIC50
21 | Cc1cnc(Nc2cccc(S(N)(=O)=O)c2)nc1Nc1ccc2[nH]c(=O)oc2c1 [Compound I-98, N2-((3-aminosulfonyl)phenyl)-N4-(2-oxo-2,3-dihydrobenzo[d]oxazol-6-yl)-5-methylpyrimidine-2,4-diamine] | > 6.30
22 | Cc1cnc(Nc2ccc3c(c2)OCCO3)nc1Nc1ccc2oc(=O)[nH]c2c1 [IV-37, N2-(3,4-ethylenedioxy)phenyl-5-methyl-N4-(2-oxo-2,3-dihydro-1,3-benzoxazol-5-yl)-2,4-pyrimidinediamine] | > 6.30
23 | Cc1cnc(Nc2ccc(NS(C)(=O)=O)cc2)nc1Nc1ccc2c(c1)n(C)c(=O)n2C [Compound I-38, N4-(1,3-dimethylbenzimidazolin-2-on-5-yl)-N2-((4-methylsulfonylamino)phenyl)-5-methylpyrimidine-2,4-diamine] | > 6.30
24 | Cc1cnc(Nc2cc(C)c(C)c(C)c2)nc1Nc1cc(Cl)c2oc(=O)n(COP(=O)(O)O)c2c1 [Compound I-525, N4-[7-chloro-3-(phosphonooxy)methyl-2-oxo-2,3-dihydro-1,3-benzoxazol-5-yl]-5-methyl-N2-(3,4,5-trimethyl)phenyl-2,4-pyrimidinediamine] | 5.30 to 6.30
25 | Cc1cnc(Nc2cc(C)c(F)c(C)c2)nc1Nc1ccc2oc(=O)[nH]c2c1 [Compound I-374, N2-(3,5-dimethyl-4-fluoro)phenyl-5-methyl-N4-(2-oxo-2,3-dihydro-1,3-benzoxazol-5-yl)-2,4-pyrimidinediamine] | > 6.30
26 | Cc1cnc(Nc2ccc(N3CCC(NC(=O)C(C)(C)C)C3)nc2)nc1Nc1ccc2oc(=O)[nH]c2c1 (centres unmarked) [II-102, N-(1-(5-(5-methyl-4-(2-oxo-2,3-dihydrobenzo[c]oxazol-5-ylamino)pyrimidin-2-ylamino)pyridin-2-yl)pyrrolidin-3-yl)pivalamide] | > 6.30
27 | O=c1[nH]c2ccc(Nc3nc(Nc4ccc(N5CCOCC5)nc4)ncc3F)cc2[nH]1 [II-19, N4-(benzimidazolin-2-on-5-yl)-N2-((2-morpholinyl)pyridin-5-yl)-5-fluoropyrimidine-2,4-diamine] | > 6.30
28 | Cc1cnc(Nc2ccc(N3CCN4CCCCC4C3)nc2)nc1Nc1ccc2oc(=O)[nH]c2c1 (centres unmarked) [II-128, N2-[2-(1,4-diazabicylco[4.4.0]decan-4-yl)pyridin-5-yl]-5-methyl-N4-(2-oxo-2,3-dihydro-1,3-benzoxazol-5-yl)-2,4-pyrimidinediamine] | > 6.30
29 | Cc1cnc(Nc2cccc(OCC(N)=O)c2)nc1Nc1ccc2oc(=O)[nH]c2c1 [Compound I-319, N2-[3-(aminocarbonylmethoxy)]phenyl-5-methyl-N4-(2-oxo-2,3-dihydro-1,3-benzoxazol-5-yl)-2,4-pyrimidinediamine] | > 6.30
30 | Cn1c(=O)n(C)c2cc(Nc3nc(Nc4cccc(S(C)(=O)=O)c4)ncc3F)ccc21 [Compound I-41, N4-(1,3-dimethylbenzimidazolin-2-on-5-yl)-N2-((3-methylsulfonyl)phenyl)-5-fluoropyrimidine-2,4-diamine] | 5.30 to 6.30
31 | COc1ccc(Nc2ncc(C)c(Nc3ccc4oc(=O)[nH]c4c3)n2)cc1C#N [Compound I-373, N2-(3-cyano-4-methoxy)phenyl-5-methyl-N4-(2-oxo-2,3-dihydro-1,3-benzoxazol-5-yl)-2,4-pyrimidinediamine] | > 6.30
32 | Cc1cc(Nc2ncc(C)c(Nc3ccc4oc(=O)[nH]c4c3)n2)ccc1OC(C)(C)C(N)=O [Compound I-391, N2-[4-(1-aminocarbonyl-1-methyl)ethoxy-3-methyl]phenyl-5-methyl-N4-(2-oxo-2,3-dihydro-1,3-benzoxazol-5-yl)-2,4-pyrimidinediamine] | > 6.30
